Test system: adult patients with nocturia
Assay: Long term nocturnal voids, change from baseline up to week 52 (Parts II/III)
Type: in vivo, human
Details: for mean decrease in nocturnal voids per night at one year: Part III
Text: To ensure that the study remained fully blinded during the full extent of both Parts I and II, re-randomization of subjects assigned to placebo after 4 weeks of treatment was predetermined at the time of initial randomization. […] The total treatment duration for each subject depended on when that subject was randomized in Part I and was estimated to be a minimum of 4 weeks and a maximum of 6 months. Upon completion of Part II of the study, subjects were given the option to participate in an open-label study with expected total treatment duration (double-blind extension plus open-label study) of at least 12 months (i.e., Part III). In Part III, subjects were assigned to the same treatment as in Part II, initially in a blinded manner. Subjects were unblinded and the study became open label only when all subjects in Parts I and II remaining in the study had entered Part III. During Part III, 10 μg was identified as a sub-therapeutic dose based on efficacy data from Part I. As a consequence, patients in the 10 μg treatment group were re-randomized (beginning Q4 2008) to one of the other treatment groups (i.e., 25 μg, 50 μg, or 100 μg). The total treatment duration was at least 12 months. A total of 508 patients entered the open-labeled extension (i.e., Part III). […] A summary of the changes from baseline is presented for all eligible subjects. […] However, based on the data below, the additional decreases in the number of voids can be characterized as clinically significant. As used here, “clinically significant” means a minimum worthwhile effect.

## NC(=O)CC[C@@H]1NC(=O)[C@H](Cc2ccccc2)NC(=O)[C@H](Cc2ccc(O)cc2)NC(=O)CCSSC[C@@H](C(=O)N2CCC[C@H]2C(=O)N[C@H](CCCN=C(N)N)C(=O)NCC(N)=O)NC(=O)[C@H](CC(N)=O)NC1=O [desmopressin]
25 μg, all eligible subjects
  mean decrease in nocturnal voids per night at one year: 1.4 voids per night
25 μg, all eligible female subjects, Day 28
  Change from baseline of nocturnal voids, Mean: −1.26
25 μg, all eligible female subjects, Week 8
  Change from baseline of nocturnal voids, Mean: −1.51
25 μg, all eligible female subjects, Week 12
  Change from baseline of nocturnal voids, Mean: −1.66
25 μg, all eligible female subjects, Week 20
  Change from baseline of nocturnal voids, Mean: −1.68
25 μg, all eligible female subjects, Week 28
  Change from baseline of nocturnal voids, Mean: −1.86
25 μg, all eligible female subjects, Week 52
  Change from baseline of nocturnal voids, Mean: −1.75
25 μg, all eligible male subjects, Day 28
  Change from baseline of nocturnal voids, Mean: −0.76
25 μg, all eligible male subjects, Week 8
  Change from baseline of nocturnal voids, Mean: −0.84
25 μg, all eligible male subjects, Week 12
  Change from baseline of nocturnal voids, Mean: −0.90
25 μg, all eligible male subjects, Week 20
  Change from baseline of nocturnal voids, Mean: −1.25
25 μg, all eligible male subjects, Week 28
  Change from baseline of nocturnal voids, Mean: −1.15
25 μg, all eligible male subjects, Week 52
  Change from baseline of nocturnal voids, Mean: −1.13
25 μg, all eligible subjects, Day 28
  Change from baseline of nocturnal voids, Mean: −0.98
25 μg, all eligible subjects, Week 8
  Change from baseline of nocturnal voids, Mean: −1.16
25 μg, all eligible subjects, Week 12
  Change from baseline of nocturnal voids, Mean: −1.29
25 μg, all eligible subjects, Week 20
  Change from baseline of nocturnal voids, Mean: −1.48
25 μg, all eligible subjects, Week 28
  Change from baseline of nocturnal voids, Mean: −1.44
25 μg, all eligible subjects, Week 52
  Change from baseline of nocturnal voids, Mean: −1.41
25 μg, all subjects with or without an assessment at week 52, Day 28
  Change from baseline of nocturnal voids, Mean: −0.96
25 μg, all subjects with or without an assessment at week 52, Week 12
  Change from baseline of nocturnal voids, Mean: −1.42
25 μg, all subjects with or without an assessment at week 52, Week 20
  Change from baseline of nocturnal voids, Mean: −1.61
25 μg, all subjects with or without an assessment at week 52, Week 28
  Change from baseline of nocturnal voids, Mean: −1.39
25 μg, all subjects with or without an assessment at week 52, Week 52
  Change from baseline of nocturnal voids, Mean: −1.41
25 μg, all subjects with or without an assessment at week 52, time printed as "Week" (between Day 28 and Week 12)
  Change from baseline of nocturnal voids, Mean: −1.31
50 μg, all eligible subjects
  mean decrease in nocturnal voids per night at one year: 1.77 voids per night
50 μg, all eligible female subjects, Day 28
  Change from baseline of nocturnal voids, Mean: −1.30
50 μg, all eligible female subjects, Week 8
  Change from baseline of nocturnal voids, Mean: −1.60
50 μg, all eligible female subjects, Week 12
  Change from baseline of nocturnal voids, Mean: −1.62
50 μg, all eligible female subjects, Week 20
  Change from baseline of nocturnal voids, Mean: −1.93
50 μg, all eligible female subjects, Week 28
  Change from baseline of nocturnal voids, Mean: −1.89
50 μg, all eligible female subjects, Week 52
  Change from baseline of nocturnal voids, Mean: −1.95
50 μg, all eligible male subjects, Day 28
  Change from baseline of nocturnal voids, Mean: −1.16
50 μg, all eligible male subjects, Week 8
  Change from baseline of nocturnal voids, Mean: −1.31
50 μg, all eligible male subjects, Week 12
  Change from baseline of nocturnal voids, Mean: −1.30
50 μg, all eligible male subjects, Week 20
  Change from baseline of nocturnal voids, Mean: −1.73
50 μg, all eligible male subjects, Week 28
  Change from baseline of nocturnal voids, Mean: −1.28
50 μg, all eligible male subjects, Week 52
  Change from baseline of nocturnal voids, Mean: −1.69
50 μg, all eligible subjects, Day 28
  Change from baseline of nocturnal voids, Mean: −1.22
50 μg, all eligible subjects, Week 8
  Change from baseline of nocturnal voids, Mean: −1.44
50 μg, all eligible subjects, Week 12
  Change from baseline of nocturnal voids, Mean: −1.44
50 μg, all eligible subjects, Week 20
  Change from baseline of nocturnal voids, Mean: −1.80
50 μg, all eligible subjects, Week 28
  Change from baseline of nocturnal voids, Mean: −1.55
50 μg, all eligible subjects, Week 52
  Change from baseline of nocturnal voids, Mean: −1.80
50 μg, all subjects with or without an assessment at week 52, Week 12
  Change from baseline of nocturnal voids, Mean: −1.51
50 μg, all subjects with or without an assessment at week 52, Week 20
  Change from baseline of nocturnal voids, Mean: −1.71
50 μg, all subjects with or without an assessment at week 52, Week 28
  Change from baseline of nocturnal voids, Mean: −1.55
50 μg, all subjects with or without an assessment at week 52, Week 52
  Change from baseline of nocturnal voids, Mean: −1.80
50 μg, all subjects with or without an assessment at week 52, time printed as "Day" (after Day 0)
  Change from baseline of nocturnal voids, Mean: −1.10
50 μg, all subjects with or without an assessment at week 52, time printed as "Week" (before Week 12)
  Change from baseline of nocturnal voids, Mean: −1.43
100 μg, all eligible subjects
  mean decrease in nocturnal voids per night at one year: 2.11 voids per night
100 μg, all eligible female subjects, Day 28
  Change from baseline of nocturnal voids, Mean: −1.50
100 μg, all eligible female subjects, Week 8
  Change from baseline of nocturnal voids, Mean: −1.69
100 μg, all eligible female subjects, Week 12
  Change from baseline of nocturnal voids, Mean: −1.79
100 μg, all eligible female subjects, Week 20
  Change from baseline of nocturnal voids, Mean: −1.98
100 μg, all eligible female subjects, Week 28
  Change from baseline of nocturnal voids, Mean: −1.75
100 μg, all eligible female subjects, Week 52
  Change from baseline of nocturnal voids, Mean: −2.11
100 μg, all eligible male subjects, Day 28
  Change from baseline of nocturnal voids, Mean: −1.31
100 μg, all eligible male subjects, Week 8
  Change from baseline of nocturnal voids, Mean: −1.52
100 μg, all eligible male subjects, Week 12
  Change from baseline of nocturnal voids, Mean: −1.89
100 μg, all eligible male subjects, Week 20
  Change from baseline of nocturnal voids, Mean: −1.92
100 μg, all eligible male subjects, Week 28
  Change from baseline of nocturnal voids, Mean: −1.92
100 μg, all eligible male subjects, Week 52
  Change from baseline of nocturnal voids, Mean: −2.12
100 μg, all eligible subjects, Day 28
  Change from baseline of nocturnal voids, Mean: −1.406
100 μg, all eligible subjects, Week 8
  Change from baseline of nocturnal voids, Mean: −1.61
100 μg, all eligible subjects, Week 12
  Change from baseline of nocturnal voids, Mean: −1.83
100 μg, all eligible subjects, Week 20
  Change from baseline of nocturnal voids, Mean: −1.95
100 μg, all eligible subjects, Week 28
  Change from baseline of nocturnal voids, Mean: −1.83
100 μg, all eligible subjects, Week 52
  Change from baseline of nocturnal voids, Mean: −2.11
100 μg, all subjects with or without an assessment at week 52, Day 28
  Change from baseline of nocturnal voids, Mean: −1.31
100 μg, all subjects with or without an assessment at week 52, Week 8
  Change from baseline of nocturnal voids, Mean: −1.47
100 μg, all subjects with or without an assessment at week 52, Week 12
  Change from baseline of nocturnal voids, Mean: −1.73
100 μg, all subjects with or without an assessment at week 52, Week 20
  Change from baseline of nocturnal voids, Mean: −1.86
100 μg, all subjects with or without an assessment at week 52, Week 52
  Change from baseline of nocturnal voids, Mean: −2.11
100 μg, all subjects with or without an assessment at week 52, time printed as "Week" (between Week 20 and Week 52)
  Change from baseline of nocturnal voids, Mean: −1.80
